The target in one test is HIV-1 protease (Human immunodeficiency virus type 1 group M subtype B, UniProt P04585). Description: HIV protease assay (Ki). The format is biochemical. From the text: (§1) This example illustrates the HIV-1 protease inhibition activity (Ki), HIV-1 antiviral data (EC50), and the toxicity against normal cells (IC50), for particular compounds of formula (I). The HIV protease assay was done according to the protocol described in Kageyama et al, Antimicrob. Agents Chemother., 37, 272 (1993). The HIV antiviral assay was done according to the protocol described in Weislow et al., J. National Cancer Inst. 81, 577 (1989).
(§2) The HIV protease assay was done according to the protocol described in Example 35. The plasmepsin II assay was done according to the protocol used in Silva et al., Proc. Nat. Acad. Sci. USA, 93, pp. 10034–10039, September 1996 (Biochemstry). The cathepsin D assay was done according to the protocol described in Gulnik et al., FEBS Letters, 413, 379–384 (1997). The compounds illustrated in Table 2 are of the general formula (II), as described in Example 35.

The next test has as its system HIV-1. Kind of test: HIV antiviral assay (EC50). The class given is cell-based. From the text: The HIV protease assay was done according to the protocol described in Kageyama et al, Antimicrob. Agents Chemother., 37, 272 (1993). The HIV antiviral assay was done according to the protocol described in Weislow et al., J. National Cancer Inst. 81, 577 (1989).
In the next test the test system is normal cells. Kind of test: toxicity against normal cells (IC50). The format is cell-based.
Description: as §1

A further test has as its target cathepsin D (Homo sapiens, UniProt P07339). Description: cathepsin D assay (Ki). The class given is biochemical. Particulars: for Ki: Table 2, read-out: Cath D Ki.
Description: as §2

The target of a further test is plasmepsin II (Plasmodium falciparum, UniProt P46925). Description: biochemical. The settings on record: for Ki: Table 2, read-out: Pls II Ki. The format is biochemical.
Description: as §2

[1] abbreviates: Table 1, in nM, read-out: HIV-1 Ki.

Six compounds from patent US7132420B2, “Aspartic protease inhibitors” (The United States of America as represented by the …, priority 1999, dated 2006) can be followed below.

Where two headings read alike, the source gives them in different places.

Sequence of plasmepsin II (P46925 125-453): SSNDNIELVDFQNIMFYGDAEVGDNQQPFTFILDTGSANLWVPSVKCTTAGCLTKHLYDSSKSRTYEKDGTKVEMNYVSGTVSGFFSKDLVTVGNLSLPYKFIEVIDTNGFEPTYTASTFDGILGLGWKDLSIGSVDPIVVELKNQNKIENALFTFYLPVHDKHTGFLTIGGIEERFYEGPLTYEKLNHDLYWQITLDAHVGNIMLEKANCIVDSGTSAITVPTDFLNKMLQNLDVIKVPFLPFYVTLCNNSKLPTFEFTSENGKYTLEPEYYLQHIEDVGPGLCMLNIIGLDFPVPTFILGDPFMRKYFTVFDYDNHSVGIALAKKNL
Sequence of cathepsin D (P07339 65-412): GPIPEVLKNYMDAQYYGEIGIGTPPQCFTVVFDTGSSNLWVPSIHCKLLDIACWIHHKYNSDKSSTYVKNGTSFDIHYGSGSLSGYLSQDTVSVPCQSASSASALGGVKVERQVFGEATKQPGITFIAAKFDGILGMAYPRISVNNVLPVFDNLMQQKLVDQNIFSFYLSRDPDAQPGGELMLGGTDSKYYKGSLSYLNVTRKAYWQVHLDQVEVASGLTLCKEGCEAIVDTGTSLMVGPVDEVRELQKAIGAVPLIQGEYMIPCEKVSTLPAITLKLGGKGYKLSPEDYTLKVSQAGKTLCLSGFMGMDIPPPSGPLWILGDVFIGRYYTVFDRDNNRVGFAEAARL

As for `Cc1cccc(C)c1OCC(=O)N[C@@H](Cc1ccccc1)[C@@H](O)C[C@H](Cc1ccccc1)NC(=O)[C@H](C(C)C)N1CCCNC1=O` [(24), reference compound], the Ki at HIV-1 protease (Table 1, read-out: HIV-1 Ki) came out at 0.013 nM; on HIV-1 protease (Table 2, read-out: HIV-1 Ki) it was 0.012 nM; at cathepsin D, 1960 nM; on plasmepsin II, 3500 nM. Moreover, the EC50 with HIV-1 (Table 1) and in the test with HIV-1 (Table 2) was 41 nM in each case. Besides, the IC50 in the test on normal cells (Table 1) and in the test on normal cells (Table 2) was over 100000 nM throughout.
Turning to `Cc1cccc(C)c1OCC(=O)N[C@@H](Cc1ccccc1)[C@@H](O)C[C@H](CC(C)C)NC(=O)[C@@H]1CCNC(=O)N1` [(29), (2S,3S,5S)-2-[N-[2-(2,6-dimethylphenoxy)acetyl]amino]-5-[N-[2S-(2-oxopyrimidinyl)-4-carbonyl]amino]-3-hydroxy-7-methyl-1-phenyloctane], the Ki at HIV-1 protease (setting [1]) is 16 nM; on HIV-1 protease (Table 2, read-out: HIV-1 Ki) it was 0.16 nM; on cathepsin D it was 305 nM; at plasmepsin II, 3500 nM. In addition, the “HIV-1 EC50 (μM)” value is listed as “in-active” in the test with HIV-1 (Table 1) and “notactive” with HIV-1 (Table 2).
With `Cc1cccc(C)c1OCC(=O)N[C@@H](Cc1ccccc1)[C@@H](O)C[C@H](CC(C)C)NC(=O)c1cccc(N)c1` [(32)], the “inhibitory activity against HIV-1 protease, in words” value against HIV-1 protease is “generally potent”. The Ki on HIV-1 protease (Table 1, read-out: HIV-1 Ki) is 0.331 nM; at HIV-1 protease (Table 2, read-out: HIV-1 Ki), 0.33 nM; on cathepsin D, 7.4 nM; at plasmepsin II, 18 nM. In addition, the EC50 in the test on HIV-1 (Table 1) and in the test with HIV-1 (Table 2) was 2000 nM in each case. Further, the IC50 in the test on normal cells (Table 1) and in the test with normal cells (Table 2) was over 100000 nM each time. For the same compound, on cathepsin D, the “inhibitory activity against cathepsin D, in words” value is reported as “generally potent”. For the same compound, the “inhibitory activity against plasmepsin II, in words” value at plasmepsin II is “generally potent”.
Regarding `Cc1cccc(C)c1OCC(=O)N[C@@H](Cc1ccccc1)[C@@H](O)C[C@H](CC(C)C)NC(=O)NC(C)(C)C` [(28), (2S,3S,5S)-5-[N-[[N′-(tert-butyl)amino]carbonyl]amino]-2-[N-[2-(2,6-dimethylphenoxy)acetyl]amino]-3-hydroxy-7-methyl-1-phenyloctane], at HIV-1 protease, the “inhibitory activity against HIV-1 protease, in words” value was “generally potent”. The Ki on HIV-1 protease (Table 1, read-out: HIV-1 Ki) is 0.1 nM; at HIV-1 protease (Table 2, read-out: HIV-1 Ki) it was 0.1 nM; on plasmepsin II, 107 nM. Besides, the EC50 with HIV-1 (Table 1) and with HIV-1 (Table 2) was 2000 nM in each case. The same compound returned an IC50 in the test on normal cells (Table 2) of over 100000 nM. Further, the “inhibitory activity against cathepsin D, in words” value against cathepsin D is “generally potent”. The “inhibitory activity against plasmepsin II, in words” value against plasmepsin II is reported as “generally potent”.
Turning to `Cc1cccc(C)c1OCC(=O)N[C@@H](Cc1ccccc1)[C@@H](O)C[C@H](CC(C)C)NC(=O)N1CCOCC1` [(27)], the Ki was determined as 37 nM on HIV-1 protease (setting [1]); 0.37 nM at HIV-1 protease (Table 2, read-out: HIV-1 Ki); 6.1 nM at cathepsin D; 76 nM at plasmepsin II. The EC50 in the test with HIV-1 (Table 1) and in the test with HIV-1 (Table 2) was over 50000 nM in each case.
Regarding `Cc1cccc(C)c1OCC(=O)N[C@@H](Cc1ccccc1)[C@@H](O)C[C@H](CC(C)C)NC(=O)c1ccc(N)cc1` [(31), (2S,3S,5S)-5-[N-(4-aminobenzoyl)amino]-2-[N-[2-(2,6-dimethylphenoxy)acetyl]amino]-3-hydroxy-7-methyl-1-phenyloctane], at HIV-1 protease, the Ki came to 1.2 nM and the “inhibitory activity against HIV-1 protease, in words” value is on record as “generally potent”. In the test with HIV-1 (Human immunodeficiency virus 1, Table 1), the midpoint of the response, the EC50, lay at 2000 nM. Besides, the IC50 with normal cells (Table 1) is over 100000 nM. In the test with normal cells (Table 2), this compound showed an IC50 of over 100000 nM. The “inhibitory activity against cathepsin D, in words” value on cathepsin D is “generally potent”. At plasmepsin II, the “inhibitory activity against plasmepsin II, in words” value was “generally potent” and the Ki stood at 30 nM.

What is called Ki is a dissociation constant, usually derived from enzyme kinetics or from competition with a known ligand. As a reminder, the EC50 is the concentration giving half of the maximal effect. One may read the IC50 as the concentration needed to halve the response being measured.
